Experiments:
Assay type in all cases: in vivo
[1] = system: barnyardgrass (Echinochloa crus-galli); test: Test A pre/postemergence
Summary of the method: (§1)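 Visual injury scores on a 0–100 scale, 100 being complete control, were assigned roughly ten days after treatment by comparison with untreated greenhouse controls. Test chemicals, formulated with surfactant in non-phytotoxic solvent, were sprayed onto soil preemergence and onto 1–2-leaf plants 2–10 cm tall postemergence.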

[2] = system: crabgrass (Digitaria sanguinalis); test: Test A pre/postemergence
Summary of the method: as §1

[3] = system: giant foxtail (Setaria faberi); test: Test A pre/postemergence
Summary of the method: as §1

[4] = system: morningglory (Ipomoea spp.); test: Test A pre/postemergence
Summary of the method: as §1

[5] = system: redroot pigweed (Amaranthus retroflexus); test: Test A pre/postemergence
Summary of the method: as §1

[6] = system: velvetleaf (Abutilon theophrasti); test: Test A pre/postemergence
Summary of the method: as §1

[7] = system: Surinam grass (Brachiaria decumbens); test: Test B pre/postemergence; details: for Surinam Grass plant response rating: Postemergence; for Plant response rating, Surinam Grass: Preemergence
From the text: (§2) Seeds selected from barnyardgrass (Echinochloa crus-galli), Surinam grass (Brachiaria decumbens), cocklebur (Xanthium strumarium), corn (Zea mays), crabgrass (Digitaria sanguinalis), giant foxtail (Setaria faberii), lambsquarters (Chenopodium album), morningglory (Ipomoea coccinea), pigweed (Amaranthus retroflexus), velvetleaf (Abutilon theophrasti), and wheat (Triticum aestivum) were planted and treated preemergence with test chemicals formulated in a non-phytotoxic solvent mixture which included a surfactant.
(§3) At the same time, plants selected from these crop and weed species and also blackgrass (Alopecurus myosuroides) and wild oat (Avena fatua) were treated with postemergence applications of test chemicals formulated in the same manner. Plants ranged in height from 2 to 18 cm (1- to 4-leaf stage) for postemergence treatments. Plant species in the flooded paddy test consisted of rice (Oryza sativa), umbrella sedge (Cyperus difformis), duck salad (Heteranthera limosa) and barnyardgrass (Echinochloa crus-galli) grown to the 2-leaf stage for testing. Treated plants and controls were maintained in a greenhouse for 13 to 15 days, after which time all species were compared to controls and visually evaluated. Plant response ratings, summarized in Table B, are based on a scale of 0 to 100 where 0 is no effect and 100 is complete control. A dash (-) response means no test result.

[8] = system: barnyardgrass (Echinochloa crus-galli); test: Test B pre/postemergence; details: for Barnyardgrass plant response rating: Postemergence; for Plant response rating, Barnyardgrass: Preemergence
From the text: as §2, §3

[9] = system: cocklebur (Xanthium strumarium); test: Test B pre/postemergence; details: for Cocklebur plant response rating: Postemergence; for Plant response rating, Cocklebur: Preemergence
From the text: as §2, §3

[10] = system: corn (Zea mays); test: Test B pre/postemergence; details: for Corn plant response rating: Postemergence; for Plant response rating, Corn: Preemergence
From the text: as §2, §3

[11] = system: crabgrass (Digitaria sanguinalis); test: Test B pre/postemergence; details: for Crabgrass plant response rating: Postemergence; for Plant response rating, Crabgrass: Preemergence
From the text: as §2, §3

[12] = system: giant foxtail (Setaria faberii); test: Test B pre/postemergence; details: for Foxtail, Giant plant response rating: Postemergence; for Plant response rating, Foxtail, Giant: Preemergence
From the text: as §2, §3

[13] = system: lambsquarters (Chenopodium album); test: Test B pre/postemergence; details: for Lambsquarters plant response rating: Postemergence; for Plant response rating, Lambsquarters: Preemergence
From the text: as §2, §3

[14] = system: morningglory (Ipomoea coccinea); test: Test B pre/postemergence; details: for Morningglory plant response rating: Postemergence; for Plant response rating, Morningglory: Preemergence
From the text: as §2, §3

[15] = system: pigweed (Amaranthus retroflexus); test: Test B pre/postemergence; details: for Pigweed plant response rating: Postemergence; for Plant response rating, Pigweed: Preemergence
From the text: as §2, §3

[16] = system: velvetleaf (Abutilon theophrasti); test: Test B pre/postemergence; details: for Velvetleaf plant response rating: Postemergence; for Plant response rating, Velvetleaf: Preemergence
From the text: as §2, §3

[17] = system: wheat (Triticum aestivum); test: Test B pre/postemergence; details: for Wheat plant response rating: Postemergence; for Plant response rating, Wheat: Preemergence
From the text: as §2, §3

[18] = system: blackgrass (Alopecurus myosuroides); test: Test B postemergence; details: scale 0 to 100 (0 no effect, 100 complete control)
Summary of the method: (§4)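 Following sowing, compounds in a surfactant-bearing non-phytotoxic solvent were applied preemergence; emerged plants 2 to 18 cm high got postemergence treatment concurrently. Evaluation: 13 to 15 days later, greenhouse, 0–100 visual scale.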

[19] = system: wild oat (Avena fatua); test: Test B postemergence; details: scale 0 to 100 (0 no effect, 100 complete control)
Summary of the method: as §4

[20] = system: barnyardgrass (Echinochloa crus-galli); test: Test B flooded paddy test; details: Flood, scale 0 to 100
Summary of the method: (§5)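 Rice, umbrella sedge, duck salad and barnyardgrass grown to 2-leaf stage under flooded paddy conditions and treated with formulated test chemicals. Kept in greenhouse 13–15 days, then visually rated against untreated controls on a 0–100 scale (0 no effect, 100 complete control).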

[21] = system: duck salad (Heteranthera limosa); test: Test B flooded paddy test; details: Flood, scale 0 to 100
Summary of the method: as §5

[22] = system: rice (Oryza sativa); test: Test B flooded paddy test; details: Flood, scale 0 to 100
Summary of the method: as §5

[23] = system: umbrella sedge (Cyperus difformis); test: Test B flooded paddy test; details: Flood, scale 0 to 100
Summary of the method: as §5

[24] = Postemergence, 125 g ai/ha, 0 to 100 scale (0 no effect, 100 complete control)
[25] = Postemergence, 500 g ai/ha, 0 to 100 scale (0 no effect, 100 complete control)
[26] = Preemergence, 125 g ai/ha, 0 to 100 scale where 0 is no effect and 100 is complete control, approximately ten days
[27] = Preemergence, 500 g ai/ha, 0 to 100 scale where 0 is no effect and 100 is complete control, approximately ten days
[28] = 62 g ai/ha, scale 0 to 100 (0 no effect, 100 complete control)
[29] = 125 g ai/ha, scale 0 to 100 (0 no effect, 100 complete control)
[30] = 62 g ai/ha, scale 0 to 100, 0 no effect, 100 complete control

COC(=O)c1nc(-c2ccc(F)cc2)nc(N)c1Br [Compound 92]
Plant response rating, Barnyardgrass [1, 24]: 0 | Plant response rating, Barnyardgrass [1, 25]: 0 | Plant response rating, Barnyardgrass [1, 26]: 0 | Plant response rating, Barnyardgrass [1, 27]: 0 | Plant response rating, Crabgrass [2, 24]: 0 | Plant response rating, Crabgrass [2, 25]: 5 | Plant response rating, Crabgrass [2, 26]: 0 | Plant response rating, Crabgrass [2, 27]: 0 | Plant response rating, Foxtail, Giant [3, 24]: 0 | Plant response rating, Foxtail, Giant [3, 25]: 0 | Plant response rating, Foxtail, Giant [3, 26]: 0 | Plant response rating, Foxtail, Giant [3, 27]: 0 | Plant response rating, Morningglory [4, 24]: 45 | Plant response rating, Morningglory [4, 25]: 75 | Plant response rating, Morningglory [4, 26]: 0 | Plant response rating, Morningglory [4, 27]: 0 | Plant response rating, Pigweed [5, 24]: 35 | Plant response rating, Pigweed [5, 25]: 70 | Plant response rating, Pigweed [5, 26]: 15 | Plant response rating, Pigweed [5, 27]: 45 | Plant response rating, Velvetleaf [6, 24]: 45 | Plant response rating, Velvetleaf [6, 25]: 70 | Plant response rating, Velvetleaf [6, 26]: 10 | Plant response rating, Velvetleaf [6, 27]: 45 | Surinam Grass plant response rating [7, 28]: 0 | Surinam Grass plant response rating [7, 29]: 10 | Plant response rating, Surinam Grass [7, 30]: 0 | Plant response rating, Surinam Grass [7, 29]: 0 | Barnyardgrass plant response rating [8, 28]: 10 | Barnyardgrass plant response rating [8, 29]: 10 | Plant response rating, Barnyardgrass [8, 30]: 10 | Plant response rating, Barnyardgrass [8, 29]: 30 | Cocklebur plant response rating [9, 28]: 60 | Cocklebur plant response rating [9, 29]: 80 | Plant response rating, Cocklebur [9, 30]: 40 | Plant response rating, Cocklebur [9, 29]: 50 | Corn plant response rating [10, 28]: 0 | Corn plant response rating [10, 29]: 0 | Plant response rating, Corn [10, 30]: 0 | Plant response rating, Corn [10, 29]: 0 | Crabgrass plant response rating [11, 28]: 0 | Crabgrass plant response rating [11, 29]: 20 | Plant response rating, Crabgrass [11, 30]: 0 | Plant response rating, Crabgrass [11, 29]: 10 | Foxtail, Giant plant response rating [12, 28]: 20 | Foxtail, Giant plant response rating [12, 29]: 30 | Plant response rating, Foxtail, Giant [12, 30]: 0 | Plant response rating, Foxtail, Giant [12, 29]: 10 | Lambsquarters plant response rating [13, 28]: 90 | Lambsquarters plant response rating [13, 29]: 90 | Plant response rating, Lambsquarters [13, 30]: 50 | Plant response rating, Lambsquarters [13, 29]: 80 | Morningglory plant response rating [14, 28]: 50 | Morningglory plant response rating [14, 29]: 60 | Plant response rating, Morningglory [14, 30]: 0 | Plant response rating, Morningglory [14, 29]: 0 | Pigweed plant response rating [15, 28]: 70 | Pigweed plant response rating [15, 29]: 80 | Plant response rating, Pigweed [15, 30]: 40 | Plant response rating, Pigweed [15, 29]: 80 | Velvetleaf plant response rating [16, 28]: 50 | Velvetleaf plant response rating [16, 29]: 60 | Plant response rating, Velvetleaf [16, 30]: 50 | Plant response rating, Velvetleaf [16, 29]: 70 | Wheat plant response rating [17, 28]: 0 | Wheat plant response rating [17, 29]: 0 | Plant response rating, Wheat [17, 30]: 0 | Plant response rating, Wheat [17, 29]: 30 | Blackgrass plant response rating ([18]; 62 g ai/ha): 20 | Blackgrass plant response rating ([18]; 125 g ai/ha): 20 | Oat, Wild plant response rating ([19]; 62 g ai/ha): 0 | Oat, Wild plant response rating ([19]; 125 g ai/ha): 0 | Plant response rating, Barnyardgrass ([20]; 125 g ai/ha): 0 | Plant response rating, Barnyardgrass ([20]; 500 g ai/ha): 0 | Plant response rating, Ducksalad ([21]; 125 g ai/ha): 80 | Plant response rating, Ducksalad ([21]; 500 g ai/ha): 90 | Plant response rating, Rice ([22]; 125 g ai/ha): 0 | Plant response rating, Rice ([22]; 500 g ai/ha): 0 | Plant response rating, Sedge, Umbrella ([23]; 125 g ai/ha): 80 | Plant response rating, Sedge, Umbrella ([23]; 500 g ai/ha): 90
